Laboratory results: patent US20230234967A1, “Fused Azole Heterocycles as AHR Antagonists” (Senda Biosciences, Inc., priority 2021, published 2023)

Assay: Hepatocyte Stability Assay, rat hepatocytes
Assay type: in vitro ADME
Conditions: cryopreserved rat hepatocytes, read-out: Rat hepatocyte clearance
Procedure: Example 32: Hepatocyte Stability Assay
Preparation of working solutions: 10 mM stock solutions of test compound and positive control were prepared in DMSO. In separate conical tubes, the 10 mM solution of test compound and the positive control were diluted to 100 μM by combining 198 μL of 50% acetonitrile/50% water and 2 μL of 10 mM stock.
Preparation of Hepatocytes: Incubation medium (William's E Medium supplemented with GlutaMAX) and hepatocyte thawing medium were placed in a 37° C. water bath and allowed warming for at least 15 minutes prior to use. A vial of cryopreserved hepatocytes was transferred from storage, ensuring that vials remained at cryogenic temperatures until thawing process ensued. Cells were thawed by placing the vial in a 37° C. water bath and gently shaking the vials for 2 minutes. […] Using an AO/PI Staining, cells were counted and the viable cell density was determined. Cells with poor viability (<75% viability) were determined to be not acceptable for use. […]
Data Analysis: All calculations were carried out using Microsoft Excel. Peak areas were determined from extracted ion chromatograms. In vitro half-life (t1/2) of parent compound was determined by regression analysis of the percent parent disappearance vs. time curve.
The in vitro half-life (in vitro t1/2) was determined from the slope value: […]

SMILES: Cc1ccccc1-c1ccc2nc(NC(=O)c3ccnn3C)sc2n1 [Product 15, 1-Methyl-N-(5-(o-tolyl)thiazolo[5,4-b]pyridin-2-yl)-1H-pyrazole-5-carboxamide]
- CLint scaled at 1 µM: > 50 mL/min/kg

SMILES: COc1ccccc1-c1ccc2nc(NC(=O)c3ccnn3C)sc2n1 [Product 25, N-(5-(2-methoxyphenyl)thiazolo[5,4-b]pyridin-2-yl)-1-methyl-1H-pyrazole-5-carboxamide]
- CLint scaled at 1 µM: > 50 mL/min/kg
